Measurements as given in ChEMBL document CHEMBL3991601, “The target landscape of clinical kinase drugs” (Science, 2017).
pKd: −log10 of the molar value. Where a name gives a salt, the structure may show the parent alone. Activity calls are given as the source filed them.

Key:
Myosin-10 = Myosin-10 (Homo sapiens, UniProt P35580)
[1] = biological target: T1, Cytochrome c1, heme protein, mitochondrial (Homo sapiens, UniProt P08574)
T1 sequence (P08574 whole entry): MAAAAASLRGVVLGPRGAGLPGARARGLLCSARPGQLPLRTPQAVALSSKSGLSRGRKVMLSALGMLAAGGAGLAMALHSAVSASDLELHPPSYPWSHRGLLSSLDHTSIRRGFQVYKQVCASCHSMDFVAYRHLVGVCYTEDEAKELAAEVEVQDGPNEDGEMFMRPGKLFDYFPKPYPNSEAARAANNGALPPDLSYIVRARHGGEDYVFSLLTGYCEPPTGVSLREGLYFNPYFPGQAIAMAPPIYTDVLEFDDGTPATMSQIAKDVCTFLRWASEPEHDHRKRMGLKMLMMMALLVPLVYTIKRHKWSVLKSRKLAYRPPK

[2] = biological target: DNA topoisomerase 2-alpha (Homo sapiens, UniProt P11388)
DNA topoisomerase 2-alpha, sequence (P11388 whole entry): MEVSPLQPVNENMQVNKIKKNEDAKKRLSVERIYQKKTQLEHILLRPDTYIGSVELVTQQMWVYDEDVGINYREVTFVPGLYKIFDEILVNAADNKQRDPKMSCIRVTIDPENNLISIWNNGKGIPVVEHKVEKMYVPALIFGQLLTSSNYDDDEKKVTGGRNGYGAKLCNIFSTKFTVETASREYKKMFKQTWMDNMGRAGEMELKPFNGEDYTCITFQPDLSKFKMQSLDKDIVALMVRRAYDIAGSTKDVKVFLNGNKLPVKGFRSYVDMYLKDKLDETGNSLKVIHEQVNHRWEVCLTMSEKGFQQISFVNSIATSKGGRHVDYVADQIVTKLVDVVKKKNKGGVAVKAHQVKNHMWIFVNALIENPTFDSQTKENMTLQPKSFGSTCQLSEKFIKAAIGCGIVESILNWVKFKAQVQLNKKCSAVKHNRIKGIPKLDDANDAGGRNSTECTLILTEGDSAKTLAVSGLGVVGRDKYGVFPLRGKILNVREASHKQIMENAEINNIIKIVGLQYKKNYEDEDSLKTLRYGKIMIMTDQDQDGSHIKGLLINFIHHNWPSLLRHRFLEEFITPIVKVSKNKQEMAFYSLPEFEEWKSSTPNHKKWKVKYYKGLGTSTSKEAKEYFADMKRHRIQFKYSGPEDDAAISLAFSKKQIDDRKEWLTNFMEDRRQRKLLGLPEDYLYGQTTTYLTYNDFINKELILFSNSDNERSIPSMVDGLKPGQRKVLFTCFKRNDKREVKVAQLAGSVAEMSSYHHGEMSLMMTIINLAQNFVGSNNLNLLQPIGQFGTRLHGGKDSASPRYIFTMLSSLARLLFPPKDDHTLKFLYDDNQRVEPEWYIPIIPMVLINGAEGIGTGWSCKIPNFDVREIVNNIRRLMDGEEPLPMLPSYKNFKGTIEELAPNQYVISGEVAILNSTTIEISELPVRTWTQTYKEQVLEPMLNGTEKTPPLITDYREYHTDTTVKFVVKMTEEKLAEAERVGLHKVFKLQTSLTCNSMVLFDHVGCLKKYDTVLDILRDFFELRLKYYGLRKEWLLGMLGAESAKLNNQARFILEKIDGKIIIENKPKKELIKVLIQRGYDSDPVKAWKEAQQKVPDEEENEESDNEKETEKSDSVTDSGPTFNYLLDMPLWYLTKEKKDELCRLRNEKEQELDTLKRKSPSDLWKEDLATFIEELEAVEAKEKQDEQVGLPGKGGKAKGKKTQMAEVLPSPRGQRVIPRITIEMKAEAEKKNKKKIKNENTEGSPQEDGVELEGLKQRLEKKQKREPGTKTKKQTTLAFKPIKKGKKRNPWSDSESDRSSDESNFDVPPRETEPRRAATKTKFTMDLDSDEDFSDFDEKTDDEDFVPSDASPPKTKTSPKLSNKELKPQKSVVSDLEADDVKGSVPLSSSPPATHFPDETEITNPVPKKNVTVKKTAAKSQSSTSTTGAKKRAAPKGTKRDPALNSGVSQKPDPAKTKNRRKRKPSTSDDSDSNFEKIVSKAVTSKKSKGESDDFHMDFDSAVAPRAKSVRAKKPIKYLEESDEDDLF

[3] = biological target: NADH dehydrogenase [ubiquinone] 1 alpha subcomplex subunit 13 (Homo sapiens, UniProt Q9P0J0)
NADH dehydrogenase [ubiquinone] 1 alpha subcomplex subunit 13, sequence (Q9P0J0 whole entry, one chain of several): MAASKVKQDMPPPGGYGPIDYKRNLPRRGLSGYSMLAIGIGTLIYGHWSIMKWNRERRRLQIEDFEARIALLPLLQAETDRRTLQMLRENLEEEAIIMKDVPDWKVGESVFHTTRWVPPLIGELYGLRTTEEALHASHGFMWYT

TGF-beta receptor type-1 = biological target: T2, TGF-beta receptor type-1 (Homo sapiens, UniProt P36897)
T2 sequence (P36897 whole entry): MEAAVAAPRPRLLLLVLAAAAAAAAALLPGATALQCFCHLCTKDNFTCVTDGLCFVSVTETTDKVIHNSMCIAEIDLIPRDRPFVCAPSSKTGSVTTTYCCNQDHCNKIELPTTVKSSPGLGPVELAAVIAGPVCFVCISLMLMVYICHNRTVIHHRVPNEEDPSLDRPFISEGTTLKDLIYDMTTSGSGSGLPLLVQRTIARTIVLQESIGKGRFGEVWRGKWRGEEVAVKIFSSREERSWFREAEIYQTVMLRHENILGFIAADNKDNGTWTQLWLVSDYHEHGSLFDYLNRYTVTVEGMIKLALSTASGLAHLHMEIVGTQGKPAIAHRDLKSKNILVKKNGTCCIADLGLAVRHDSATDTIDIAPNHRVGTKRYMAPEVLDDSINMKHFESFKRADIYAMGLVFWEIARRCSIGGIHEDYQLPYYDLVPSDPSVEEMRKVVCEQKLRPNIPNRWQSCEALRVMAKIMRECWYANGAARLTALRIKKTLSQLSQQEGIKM

[4] = biological target: cAMP-dependent protein kinase catalytic subunit beta (Homo sapiens, UniProt P22694)
Glycine--tRNA ligase = biological target: T3, Glycine--tRNA ligase (Homo sapiens, UniProt P41250)
T3 sequence (P41250 whole entry): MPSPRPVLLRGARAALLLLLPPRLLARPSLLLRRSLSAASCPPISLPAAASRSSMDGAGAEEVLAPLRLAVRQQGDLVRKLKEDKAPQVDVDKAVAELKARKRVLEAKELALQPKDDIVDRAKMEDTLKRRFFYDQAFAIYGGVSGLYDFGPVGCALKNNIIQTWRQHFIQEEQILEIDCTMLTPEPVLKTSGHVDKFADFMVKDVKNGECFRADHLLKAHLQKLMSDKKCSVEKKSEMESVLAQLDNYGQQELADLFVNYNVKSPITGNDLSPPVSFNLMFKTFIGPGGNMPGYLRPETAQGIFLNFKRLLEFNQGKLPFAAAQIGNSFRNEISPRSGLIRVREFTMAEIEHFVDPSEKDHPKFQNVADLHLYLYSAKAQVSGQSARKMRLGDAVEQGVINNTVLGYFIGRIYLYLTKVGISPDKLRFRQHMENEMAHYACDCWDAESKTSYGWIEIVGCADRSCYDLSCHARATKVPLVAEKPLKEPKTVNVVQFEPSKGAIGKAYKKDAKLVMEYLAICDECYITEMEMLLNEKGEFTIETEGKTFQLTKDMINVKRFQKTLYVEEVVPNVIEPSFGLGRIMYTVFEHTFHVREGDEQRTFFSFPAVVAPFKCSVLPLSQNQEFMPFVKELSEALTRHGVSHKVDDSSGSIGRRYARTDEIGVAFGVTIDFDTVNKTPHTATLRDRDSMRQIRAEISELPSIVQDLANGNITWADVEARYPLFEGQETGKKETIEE

[5] = biological target: T4, Exosome RNA helicase MTR4 (Homo sapiens, UniProt P42285)
T4 sequence (P42285 whole entry): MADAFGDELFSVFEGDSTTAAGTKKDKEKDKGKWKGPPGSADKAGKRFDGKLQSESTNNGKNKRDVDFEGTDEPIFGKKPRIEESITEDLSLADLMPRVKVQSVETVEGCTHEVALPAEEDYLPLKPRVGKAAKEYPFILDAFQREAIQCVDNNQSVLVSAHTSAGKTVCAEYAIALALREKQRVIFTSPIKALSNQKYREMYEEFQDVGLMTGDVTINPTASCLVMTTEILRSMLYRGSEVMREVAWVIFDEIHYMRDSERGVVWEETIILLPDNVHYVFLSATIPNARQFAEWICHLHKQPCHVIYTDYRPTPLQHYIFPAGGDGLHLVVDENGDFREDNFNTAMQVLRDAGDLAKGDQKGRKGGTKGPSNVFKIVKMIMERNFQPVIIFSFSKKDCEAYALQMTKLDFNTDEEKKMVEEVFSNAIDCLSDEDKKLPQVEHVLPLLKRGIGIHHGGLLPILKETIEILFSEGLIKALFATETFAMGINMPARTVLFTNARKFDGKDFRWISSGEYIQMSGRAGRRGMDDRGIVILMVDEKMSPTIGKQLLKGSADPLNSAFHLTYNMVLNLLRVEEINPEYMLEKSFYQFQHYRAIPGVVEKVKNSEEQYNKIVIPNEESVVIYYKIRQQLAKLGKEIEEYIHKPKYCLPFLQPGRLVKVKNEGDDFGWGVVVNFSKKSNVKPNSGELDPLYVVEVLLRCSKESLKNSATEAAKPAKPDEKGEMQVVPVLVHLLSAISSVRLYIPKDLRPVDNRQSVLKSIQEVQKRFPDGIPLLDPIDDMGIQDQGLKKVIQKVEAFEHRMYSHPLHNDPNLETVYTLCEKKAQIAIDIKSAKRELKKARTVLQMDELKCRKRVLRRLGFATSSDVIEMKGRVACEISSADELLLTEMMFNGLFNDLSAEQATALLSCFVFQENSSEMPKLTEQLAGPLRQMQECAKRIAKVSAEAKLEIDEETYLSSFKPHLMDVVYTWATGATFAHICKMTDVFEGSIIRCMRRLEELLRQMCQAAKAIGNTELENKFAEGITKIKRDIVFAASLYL
Further: in the data inactive means no Kd found up to 30 µM.

Myosin-10, sequence (P35580 whole entry): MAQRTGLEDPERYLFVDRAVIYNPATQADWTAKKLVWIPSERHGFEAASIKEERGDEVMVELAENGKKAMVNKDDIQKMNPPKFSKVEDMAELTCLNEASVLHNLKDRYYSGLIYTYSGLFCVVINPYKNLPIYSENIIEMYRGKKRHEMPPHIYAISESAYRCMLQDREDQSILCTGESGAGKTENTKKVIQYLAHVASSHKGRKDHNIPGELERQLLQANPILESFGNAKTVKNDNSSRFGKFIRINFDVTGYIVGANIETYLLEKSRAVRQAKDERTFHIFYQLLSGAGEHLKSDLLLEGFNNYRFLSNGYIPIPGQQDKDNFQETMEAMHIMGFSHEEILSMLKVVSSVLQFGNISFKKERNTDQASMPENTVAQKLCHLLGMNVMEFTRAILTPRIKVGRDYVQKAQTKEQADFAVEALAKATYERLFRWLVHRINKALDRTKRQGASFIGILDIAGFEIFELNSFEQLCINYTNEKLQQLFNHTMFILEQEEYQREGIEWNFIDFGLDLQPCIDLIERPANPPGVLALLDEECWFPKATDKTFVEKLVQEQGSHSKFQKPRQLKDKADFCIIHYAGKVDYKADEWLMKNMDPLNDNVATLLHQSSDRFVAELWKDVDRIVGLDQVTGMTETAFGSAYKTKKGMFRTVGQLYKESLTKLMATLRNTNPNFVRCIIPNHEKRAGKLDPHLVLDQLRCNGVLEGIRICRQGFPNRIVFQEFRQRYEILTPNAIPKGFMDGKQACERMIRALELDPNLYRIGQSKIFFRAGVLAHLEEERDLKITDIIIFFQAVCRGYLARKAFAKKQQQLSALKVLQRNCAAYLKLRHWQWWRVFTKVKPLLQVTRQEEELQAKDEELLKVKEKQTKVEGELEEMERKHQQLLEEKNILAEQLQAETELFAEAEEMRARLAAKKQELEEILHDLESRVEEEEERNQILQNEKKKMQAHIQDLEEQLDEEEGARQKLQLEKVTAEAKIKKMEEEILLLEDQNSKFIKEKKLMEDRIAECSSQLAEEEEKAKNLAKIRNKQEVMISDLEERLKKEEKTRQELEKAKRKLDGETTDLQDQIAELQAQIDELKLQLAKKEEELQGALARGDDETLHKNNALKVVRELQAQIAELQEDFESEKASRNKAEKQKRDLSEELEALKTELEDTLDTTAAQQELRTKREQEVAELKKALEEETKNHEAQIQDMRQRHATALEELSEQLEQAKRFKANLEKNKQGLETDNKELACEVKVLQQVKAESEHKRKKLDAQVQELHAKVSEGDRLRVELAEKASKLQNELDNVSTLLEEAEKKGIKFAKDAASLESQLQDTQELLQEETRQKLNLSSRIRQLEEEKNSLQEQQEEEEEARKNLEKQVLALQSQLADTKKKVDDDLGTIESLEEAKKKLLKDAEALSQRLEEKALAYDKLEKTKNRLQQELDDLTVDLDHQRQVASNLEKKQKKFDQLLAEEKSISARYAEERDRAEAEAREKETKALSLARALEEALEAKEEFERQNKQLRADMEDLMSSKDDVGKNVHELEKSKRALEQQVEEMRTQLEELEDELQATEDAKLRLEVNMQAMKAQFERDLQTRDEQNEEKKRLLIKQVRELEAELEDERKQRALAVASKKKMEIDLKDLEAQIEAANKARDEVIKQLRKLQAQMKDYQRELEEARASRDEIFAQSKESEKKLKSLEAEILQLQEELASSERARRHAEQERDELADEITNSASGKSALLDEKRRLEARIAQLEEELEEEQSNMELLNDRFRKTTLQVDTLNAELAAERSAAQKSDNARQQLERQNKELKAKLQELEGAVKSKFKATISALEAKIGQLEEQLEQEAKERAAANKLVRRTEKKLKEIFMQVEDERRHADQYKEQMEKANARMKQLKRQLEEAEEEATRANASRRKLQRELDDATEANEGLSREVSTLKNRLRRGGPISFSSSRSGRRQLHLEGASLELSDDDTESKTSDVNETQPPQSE

Row | SMILES | Kd (Myosin-10) | Kd [1] | Kd [2] | Kd [3] | Kd (TGF-beta receptor type-1) | Kd [4] | Kd (Glycine--tRNA ligase) | Kd [5] | pKd [2]
1 | C=CC(=O)N1CCC[C@H](n2c(=O)n(-c3ccc(Oc4ccccc4)cc3)c3c(N)ncnc32)C1 | > 30 µM (inactive) | > 30 µM (inactive) | > 30 µM (inactive) | > 30 µM (inactive) | > 30 µM (inactive) | > 30 µM (inactive) | > 30 µM (inactive) | > 30 µM (inactive) | –
2 | Cc1nc2cc(-c3nn(C(C)C)c4ncnc(N)c34)ccc2o1 | > 30 µM (inactive) | > 30 µM (inactive) | > 30 µM (inactive) | > 30 µM (inactive) | 2.47 µM (active) | > 30 µM (inactive) | > 30 µM (inactive) | > 30 µM (inactive) | –
3 | O=C(Nc1c[nH]nc1-c1nc2cc(CN3CCOCC3)ccc2[nH]1)NC1CC1 [AT-9283] | > 30 µM (inactive) | > 30 µM (inactive) | > 30 µM (inactive) | > 30 µM (inactive) | 0.077 µM (active) | 0.927 µM (active) | > 30 µM (inactive) | > 30 µM (inactive) | –
4 | COc1cc([C@@H]2c3cc4c(cc3[C@H](O)[C@H]3COC(=O)[C@@H]23)OCO4)cc(OC)c1OC [AXL-1717] | > 30 µM (inactive) | > 30 µM (inactive) | – | > 30 µM (inactive) | > 30 µM (inactive) | > 30 µM (inactive) | > 30 µM (inactive) | > 30 µM (inactive) | 6.31
5 | Cc1cc(C(=O)NOCCO)c(Nc2ccc(I)cc2F)n(C)c1=O [AZD-8330] | > 30 µM (inactive) | > 30 µM (inactive) | > 30 µM (inactive) | > 30 µM (inactive) | > 30 µM (inactive) | > 30 µM (inactive) | > 30 µM (inactive) | > 30 µM (inactive) | –
6 | COc1cc2ncnc(Oc3cccc(NC(=O)Nc4cc(C(C)(C)C(F)(F)F)on4)c3)c2cc1OC [CEP-32496] | > 30 µM (inactive) | > 30 µM (inactive) | > 30 µM (inactive) | > 30 µM (inactive) | > 30 µM (inactive) | > 30 µM (inactive) | > 30 µM (inactive) | > 30 µM (inactive) | –
7 | COCC(=O)NC/C=C/c1ccc2ncnc(Nc3ccc(Oc4ccc(C)nc4)c(C)c3)c2c1 [CP-724714] | > 30 µM (inactive) | > 30 µM (inactive) | > 30 µM (inactive) | > 30 µM (inactive) | > 30 µM (inactive) | > 30 µM (inactive) | > 30 µM (inactive) | > 30 µM (inactive) | –
8 | O=C(Nc1cc(C(F)(F)F)cc(C(F)(F)F)c1)c1cc(Cl)ccc1O [IMD-0354] | > 30 µM (inactive) | > 30 µM (inactive) | > 30 µM (inactive) | > 30 µM (inactive) | > 30 µM (inactive) | > 30 µM (inactive) | > 30 µM (inactive) | > 30 µM (inactive) | –

The next lines start with results.

Row | Kd (Myosin-10) | Kd [1] | Kd [2] | Kd [3] | Kd (TGF-beta receptor type-1) | Kd [4] | Kd (Glycine--tRNA ligase) | Kd [5] | SMILES | pKd [2]
9 | > 30 µM (inactive) | > 30 µM (inactive) | > 30 µM (inactive) | > 30 µM (inactive) | > 30 µM (inactive) | > 30 µM (inactive) | > 30 µM (inactive) | > 30 µM (inactive) | C#Cc1cccc(Nc2ncnc3cc(OC)c(OCCCCCCC(=O)NO)cc23)c1 [CUDC-101] | –
10 | > 30 µM (inactive) | > 30 µM (inactive) | > 30 µM (inactive) | > 30 µM (inactive) | > 30 µM (inactive) | > 30 µM (inactive) | > 30 µM (inactive) | > 30 µM (inactive) | CCS(=O)(=O)N1CCN(c2ccc(Nc3ncc(C(N)=O)c(NC4CC4)n3)cc2)CC1 [Cerdulatinib Hydrochloride] | –
11 | > 30 µM (inactive) | > 30 µM (inactive) | > 30 µM (inactive) | > 30 µM (inactive) | 1.94 µM (active) | > 30 µM (inactive) | > 30 µM (inactive) | > 30 µM (inactive) | CCn1cc(-c2ccnc3[nH]c(-c4cccc(CN(C)C)c4)cc23)c(-c2ccc(NC(=O)N(C)C)cc2)n1 [GSK-1070916] | –
12 | > 30 µM (inactive) | > 30 µM (inactive) | > 30 µM (inactive) | > 30 µM (inactive) | > 30 µM (inactive) | > 30 µM (inactive) | > 30 µM (inactive) | > 30 µM (inactive) | COc1ccc(S(=O)(=O)N(C(C)=O)c2ccccc2/C=C/c2cc[n+]([O-])cc2)cc1 [HMN-214] | –
13 | > 30 µM (inactive) | > 30 µM (inactive) | > 30 µM (inactive) | > 30 µM (inactive) | > 30 µM (inactive) | > 30 µM (inactive) | > 30 µM (inactive) | > 30 µM (inactive) | CNC(=O)c1cccc2cc(Oc3ccnc4cc(OCC5(N)CC5)c(OC)cc34)ccc12 [LUCITANIB] | –
14 | > 30 µM (inactive) | > 30 µM (inactive) | > 30 µM (inactive) | > 30 µM (inactive) | > 30 µM (inactive) | > 30 µM (inactive) | > 30 µM (inactive) | > 30 µM (inactive) | NC1(c2ccc(-c3nc4ccn5c(=O)[nH]nc5c4cc3-c3ccccc3)cc2)CCC1 [MK-2206] | –
15 | > 30 µM (inactive) | > 30 µM (inactive) | > 30 µM (inactive) | > 30 µM (inactive) | > 30 µM (inactive) | > 30 µM (inactive) | > 30 µM (inactive) | > 30 µM (inactive) | CN(C[C@@H]1COCCO1)S(=O)(=O)Nc1ccc2ccc3ncc(-c4cnn(C)c4)cc3c(=O)c2c1 [MK-2461] | –
16 | > 30 µM (inactive) | > 30 µM (inactive) | > 30 µM (inactive) | > 30 µM (inactive) | > 30 µM (inactive) | > 30 µM (inactive) | > 30 µM (inactive) | > 30 µM (inactive) | FC(F)(F)c1ccc(/C=C/c2nc(COc3ccc(CCCCn4ccnn4)cc3)co2)cc1 [MUBRITINIB] | –
